{"source": "paper PMC8584349", "about": "(International Journal of Molecular Sciences, 2021)", "conditions_in_all_cases": "12 h", "key": {"[1]": {"tested_on": "SARS-CoV-2 B.1.1.7 (Alpha) PsV"}, "[2]": {"tested_on": "SARS-CoV-2 P.1 (Gamma) PsV"}, "[3]": {"tested_on": "SARS-CoV-2 B.1.617.2 (Delta) PsV"}, "[4]": {"tested_on": "SARS-CoV-2 B.1.351 (Beta) PsV"}}, "data": [{"molecule": "CC[C@H](C)[C@H](NC(=O)[C@H](C)NC(=O)[C@H](CCC(=O)O)NC(=O)[C@H](CCC(=O)O)NC(=O)[C@H](CC(C)C)NC(=O)[C@H](CCCCN)NC(=O)[C@H](CCCCN)NC(=O)[C@H](CCSC)NC(=O)[C@H](CCC(=O)O)NC(=O)[C@H](Cc1ccc(O)cc1)NC(=O)[C@H](CCC(=O)O)NC(=O)[C@H](CC(C)C)NC(=O)[C@H](CC(=O)O)NC(=O)[C@H](CC(C)C)NC(=O)[C@H](Cc1ccccc1)NC(=O)[C@@H](NC(=O)[C@@H](NC(=O)[C@H](CC(N)=O)NC(=O)[C@@H](NC(=O)[C@H](CCC(N)=O)NC(=O)[C@H](CC(=O)O)NC(=O)[C@H](CC(C)C)NC(=O)[C@@H](N)CO)[C@@H](C)CC)C(C)C)[C@@H](C)O)C(=O)N[C@@H](CCCCN)C(=O)N[C@@H](CCCCN)C(=O)N[C@@H](CC(C)C)C(=O)N[C@@H](CCC(=O)O)C(=O)N[C@@H](CCC(=O)O)C(=O)N[C@@H](CO)C(=O)N[C@@H](Cc1ccc(O)cc1)C(=O)N[C@H](C(=O)N[C@@H](CC(=O)O)C(=O)N[C@@H](CC(C)C)C(=O)N[C@@H](CCCCN)C(=O)N[C@@H](CCC(=O)O)C(=O)N[C@@H](CC(C)C)C(=O)O)[C@@H](C)CC", "note": "[EK1]", "values": [{"measurement": "IC50", "setting": "[1]", "result": 4610, "unit": "nM"}, {"measurement": "IC50", "setting": "[2]", "result": 1320, "unit": "nM"}, {"measurement": "IC50", "setting": "[3]", "result": 480, "unit": "nM"}, {"measurement": "IC50", "setting": "[4]", "result": 2290, "unit": "nM"}]}]}
